Assay results reported in US9062087B2, “Phenyl C-glucoside derivatives, preparation methods and uses thereof” (Tianjin Institute of Pharmaceutical Research, priority 2010, dated 2015).

Test system: healthy ICR mice
Assay: glucose tolerance test in fasted ICR mice (in vivo hypoglycemic model), serum glucose by glucose oxidase method
Conditions: ICR mice fasted 16 h, dosage 10 mg/kg in 1% sodium carboxymethylcellulose, 2 g/kg glucose i.p. 2 h after test compound (Dapagliflozin: 1.5 h); for blood glucose at 0.5 h: serum 0.5 h after glucose; for blood glucose at 1 h: serum 1 h after glucose; for blood glucose at 2 h: serum 2 h after glucose; for blood glucose at 3 h: serum 3 h after glucose; for blood glucose at 4 h: serum 4 h after glucose
Method: A suspension of the test compounds with […] was prepared by dissolving the sample in 1% sodium carboxymethylcellulose solution. The administration dosage is 0.2 ml/20 g body weight, which equals to a dosage of 10 mg/kg.
Female and male of healthy ICR mice are half to half, and the weight is 20-24 g, in accordance with standard level one. Animals were fasted for 16 hours. 2 g/kg glucose in saline was intraperitoneally injected 2 hours after the test compounds (for Dapagliflozin, glucose was injected 1.5 hours after medicine), and blood samples were collected from mice tall vein using capillary at fixed times of 0.5 h, 1 h, 2 h, 3 h and 4 h after challenging with glucose. The sera were separated using centrifugation. The glucose oxidase method was used to measure glucose content of serum at different time points.

SMILES: CCOc1ccc(C(OC)c2cc([C@@H]3O[C@H](CO)[C@@H](O)[C@H](O)[C@H]3O)ccc2Cl)cc1 (stereo partly drawn) [Example 53, 1-{4-chloro-3-[1-(4-ethyoxyphenyl)(methoxyl)methyl]phenyl}-1-deoxy-β-D-glucopyranose]
- blood glucose at 0.5 h: 199.0 ± 21.3 mg/dL
- blood glucose at 1 h: 171.4 ± 36.1 mg/dL
- blood glucose at 2 h: 110.2 ± 20.8 mg/dL
- blood glucose at 3 h: 93.0 ± 17.7 mg/dL
- blood glucose at 4 h: 69.6 ± 17.3 mg/dL

SMILES: CCOc1ccc(C(C)(F)c2cc([C@@H]3O[C@H](CO)[C@@H](O)[C@H](O)[C@H]3O)ccc2Cl)cc1 (stereo partly drawn) [Example 52, 1-{4-chloro-3-[1-(4-ethyoxyphenyl)-1-fluoroethyl]phenyl}-1-deoxy-β-D-glucopyranose]
- blood glucose at 0.5 h: 209.3 ± 30.4 mg/dL
- blood glucose at 1 h: 175.1 ± 20.5 mg/dL
- blood glucose at 2 h: 158.6 ± 31.1 mg/dL
- blood glucose at 3 h: 101.2 ± 12.4 mg/dL
- blood glucose at 4 h: 80.0 ± 13.2 mg/dL

SMILES: CCOc1ccc(C(F)c2cc([C@@H]3O[C@H](CO)[C@@H](O)[C@H](O)[C@H]3O)ccc2Cl)cc1 (stereo partly drawn) [Example 1, 1-{4-chloro-3-[(4-ethyoxyphenyl)fluoromethyl]phenyl}-1-deoxy-β-D-glucopyranose]
- blood glucose at 0.5 h: 194.1 ± 41.3 mg/dL
- blood glucose at 1 h: 161.1 ± 35.4 mg/dL
- blood glucose at 2 h: 97.3 ± 31.2 mg/dL
- blood glucose at 3 h: 69.1 ± 22.1 mg/dL
- blood glucose at 4 h: 67.2 ± 17.1 mg/dL

SMILES: CCOc1ccc(Cc2cc([C@@H]3O[C@H](CO)[C@@H](O)[C@H](O)[C@H]3O)ccc2Cl)cc1 [Dapagliflozin, reference compound]
- blood glucose at 0.5 h: 277.1 ± 42.4 mg/dL
- blood glucose at 1 h: 172.1 ± 34.1 mg/dL
- blood glucose at 2 h: 92.1 ± 21.1 mg/dL
- blood glucose at 3 h: 81.3 ± 20.1 mg/dL
- blood glucose at 4 h: 60.0 ± 11.0 mg/dL

SMILES: CCOc1ccc(C(C)(C)c2cc([C@@H]3O[C@H](CO)[C@@H](O)[C@H](O)[C@H]3O)ccc2Cl)cc1 [Example 16, 1-{4-chloro-3-[(dimethyl)(4-ethyoxyphenyl)methyl]phenyl}-1-deoxy-β-D-glucopyranose]
- blood glucose at 0.5 h: 157.1 ± 21.3 mg/dL
- blood glucose at 1 h: 137.0 ± 27.7 mg/dL
- blood glucose at 2 h: 102.4 ± 17.5 mg/dL
- blood glucose at 3 h: 88.1 ± 32.2 mg/dL
- blood glucose at 4 h: 70.3 ± 14.2 mg/dL

SMILES: CCOc1ccc(C(C)c2cc([C@@H]3O[C@H](CO)[C@@H](O)[C@H](O)[C@H]3O)ccc2Cl)cc1 (stereo partly drawn) [Example 36, 1-{4-chloro-3-[1-(4-ethyoxyphenyl)ethyl]phenyl}-1-deoxy-β-D-glucopyranose]
- blood glucose at 0.5 h: 189.1 ± 21.2 mg/dL
- blood glucose at 1 h: 120.1 ± 10.2 mg/dL
- blood glucose at 2 h: 113.0 ± 11.0 mg/dL
- blood glucose at 3 h: 74.6 ± 21.0 mg/dL
- blood glucose at 4 h: 69.1 ± 13.2 mg/dL

SMILES: CCOc1ccc(C(C)(OC)c2cc([C@@H]3O[C@H](CO)[C@@H](O)[C@H](O)[C@H]3O)ccc2Cl)cc1 (stereo partly drawn) [Example 51, 1-{4-chloro-3-[1-(4-ethyoxyphenyl)-1-methoxyethyl]phenyl}-1-deoxy-β-D-glucopyranose]
- blood glucose at 0.5 h: 250.5 ± 33.1 mg/dL
- blood glucose at 1 h: 158.2 ± 20.6 mg/dL
- blood glucose at 2 h: 123.2 ± 33.1 mg/dL
- blood glucose at 3 h: 101.2 ± 11.7 mg/dL
- blood glucose at 4 h: 75.5 ± 21.4 mg/dL
